Values of other authors as cited in paper PMC11246588, “New 1,2,4-oxadiazole derivatives as potential multifunctional agents for the treatment of Alzheimer’s disease: design, synthesis, and biological evaluation” (BMC Chemistry, 2024).

Columns and labels:
Design in all cases: method as in PMID 18550375, PMID 33017743, PMID 36223681, PMID 34752955, PMID 26077890
Conditions in all cases: Fig. 1; ref [50]–[55]; cited from earlier work
BChE = test system: BChE
Aβ self-aggregation = test system: Aβ self-aggregation
hMAO B = test system: hMAO B

SMILES | IC50 (BChE) | Inhibited Aβ self-aggregation (Aβ self-aggregation) | IC50 (hMAO B)
O=C(CNc1ccc(F)cc1)Nc1ccc(-c2nc(-c3ccnc(Nc4ccc(OC(F)(F)F)cc4)c3)no2)cc1 [IV] | 1280 nM | 51.91% | –
COc1cc(-c2ccc(-c3nc(-c4ccc5[nH]ncc5c4)no3)cc2)cc(OC)c1OC [VI] | – | – | 52 nM
